Values after ≈ are worked out from the molar mass of the structure shown.
Columns and labels:
Assay in all cases: in vitro antibacterial evaluation, MIC by broth dilution
Assay type in all cases: cell-based
Enterococcus sp. = conditions: broth dilution, 18 hours at 35° C.
Summary of the method: (§1)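 Broth dilution per NCCLS standard M7-A2 in Muller-Hinton II […], with an inoculum of 5×10^5 CFU/mL and antibiotic spanning 64-0.06 μg/mL. The MIC is the lowest concentration that inhibits growth of the organism.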

Escherichia coli = conditions: 18 hours at 35° C.
Summary of the method: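 Following National Committee for Clinical Laboratory Standards recommendations (M7-A2), susceptibility was measured by dilution in Muller-Hinton II […]. Bacteria were seeded at 5×10^5 CFU/mL against compound concentrations from 64 down to 0.06 μg/mL.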

Staphylococcus sp. = conditions: broth dilution, 18 hours at 35° C.
Summary of the method: as §1

Streptococcus sp. = conditions: broth dilution, 18 hours at 35° C.
Summary of the method: as §1

- MIC Enterococcus avium (GC 4558) (Enterococcus sp.; Enterococcus avium (GC 4558)): 32 µg/mL (≈ 22.3 µM)
- MIC Enterococcus faecalis (ATCC 29212) (Enterococcus sp.; Enterococcus faecalis (ATCC 29212)): 32 µg/mL (≈ 22.3 µM)
- MIC Enterococcus faecalis (GC 4553) (Enterococcus sp.; Enterococcus faecalis (GC 4553)): 32 µg/mL (≈ 22.3 µM)
- MIC Enterococcus faecalis (GC 4554) (Enterococcus sp.; Enterococcus faecalis (GC 4554)): 32 µg/mL (≈ 22.3 µM)
- MIC Enterococcus faecium (GC 2243) (Enterococcus sp.; Enterococcus faecium (GC 2243)): 32 µg/mL (≈ 22.3 µM)
- MIC Enterococcus faecium (GC 4556) (Enterococcus sp.; Enterococcus faecium (GC 4556)): 32 µg/mL (≈ 22.3 µM)
- MIC Enterococcus faecium (GC 4557) (Enterococcus sp.; Enterococcus faecium (GC 4557)): 8 µg/mL (≈ 5.57 µM)
- MIC Enterococcus faecalis (ATCC 29212) (Enterococcus sp.; strain ATCC 29212): 32 µg/mL (≈ 22.3 µM)
- MIC Enterococcus faecalis (GC 2242) (Enterococcus sp.; strain GC 2242): 16 µg/mL (≈ 11.1 µM)
- MIC Enterococcus faecium (GC 2243) (Enterococcus sp.; strain GC 2243): 32 µg/mL (≈ 22.3 µM)
- MIC Enterococcus faecalis (GC 4552) (Enterococcus sp.; strain GC 4552): 32 µg/mL (≈ 22.3 µM)
- MIC Enterococcus faecalis (GC 4553) (Enterococcus sp.; strain GC 4553): 32 µg/mL (≈ 22.3 µM)
- MIC Enterococcus faecalis (GC 4554) (Enterococcus sp.; strain GC 4554): 32 µg/mL (≈ 22.3 µM)
- MIC Enterococcus faecium (GC 4556) (Enterococcus sp.; strain GC 4556): 32 µg/mL (≈ 22.3 µM)
- MIC Enterococcus faecium (GC 4557) (Enterococcus sp.; strain GC 4557): 8 µg/mL (≈ 5.57 µM)
- MIC Enterococcus avium (GC 4558) (Enterococcus sp.; strain GC 4558): 32 µg/mL (≈ 22.3 µM)
- MIC Escherichia coli (ATCC 25922) (Escherichia coli; Escherichia coli (ATCC 25922)): >64 µg/mL
- MIC Escherichia coli (GC 4559) (Escherichia coli; Escherichia coli (GC 4559)): >64 µg/mL
- MIC Escherichia coli (GC 4560) (Escherichia coli; Escherichia coli (GC 4560)): 4 µg/mL (≈ 2.79 µM)
- MIC Coagulase Negative Staphylococcus (GC 4547) (Staphylococcus sp.): 4 µg/mL (≈ 2.79 µM)
- MIC Coagulase Negative Staphylococcus (GC 4548) (Staphylococcus sp.): 4 µg/mL (≈ 2.79 µM)
- MIC Coagulase Negative Staphylococcus (GC 4549) (Staphylococcus sp.): 4 µg/mL (≈ 2.79 µM)
- MIC Coagulase Negative Staphylococcus (GC 4551) (Staphylococcus sp.): 4 µg/mL (≈ 2.79 µM)
- MIC Staphylococcus aureus (ATCC 29213) (Staphylococcus sp.): 8 µg/mL (≈ 5.57 µM)
- MIC Staphylococcus aureus (GC 1131) (Staphylococcus sp.): 8 µg/mL (≈ 5.57 µM)
- MIC Staphylococcus aureus (GC 4541) (Staphylococcus sp.): 8 µg/mL (≈ 5.57 µM)
- MIC Staphylococcus aureus (GC 4542) (Staphylococcus sp.): 8 µg/mL (≈ 5.57 µM)
- MIC Staphylococcus aureus (GC 4544) (Staphylococcus sp.): 8 µg/mL (≈ 5.57 µM)
- MIC Staphylococcus aureus (GC 4545) (Staphylococcus sp.): 4 µg/mL (≈ 2.79 µM)
- MIC Staphylococcus aureus-SMITH (GC 4543) (Staphylococcus sp.): 4 µg/mL (≈ 2.79 µM)
- MIC Staphylococcus aureus (ATCC 29213) (Staphylococcus sp.; strain ATCC 29213): 8 µg/mL (≈ 5.57 µM)
- MIC Staphylococcus aureus (GC 1131) (Staphylococcus sp.; strain GC 1131): 8 µg/mL (≈ 5.57 µM)
- MIC Staphylococcus aureus (GC 4541) (Staphylococcus sp.; strain GC 4541): 8 µg/mL (≈ 5.57 µM)
- MIC Staphylococcus aureus (GC 4542) (Staphylococcus sp.; strain GC 4542): 8 µg/mL (≈ 5.57 µM)
- MIC Staphylococcus aureus (GC 4544) (Staphylococcus sp.; strain GC 4544): 8 µg/mL (≈ 5.57 µM)
- MIC Staphylococcus aureus (GC 4545) (Staphylococcus sp.; strain GC 4545): 4 µg/mL (≈ 2.79 µM)
- MIC Coagulase Negative Staphylococcus (GC 4547) (Staphylococcus sp.; strain GC 4547): 4 µg/mL (≈ 2.79 µM)
- MIC Coagulase Negative Staphylococcus (GC 4548) (Staphylococcus sp.; strain GC 4548): 4 µg/mL (≈ 2.79 µM)
- MIC Coagulase Negative Staphylococcus (GC 4549) (Staphylococcus sp.; strain GC 4549): 4 µg/mL (≈ 2.79 µM)
- MIC Coagulase Negative Staphylococcus (GC 4551) (Staphylococcus sp.; strain GC 4551): 4 µg/mL (≈ 2.79 µM)
- MIC Staphylococcus aureus-SMITH (GC 4543) (Staphylococcus sp.; strain SMITH GC 4543): 4 µg/mL (≈ 2.79 µM)
- MIC Streptococcus agalactiae (GC 4564) (Streptococcus sp.; strain GC 4564): 2 µg/mL (≈ 1.39 µM)
- MIC Streptococcus pyogenes (ID-3187) (Streptococcus sp.; strain ID-3187): 2 µg/mL (≈ 1.39 µM)
SMILES: CC(=O)OCC1OC(OC2C(CO)OC(Oc3ccc(CC4NC(=O)C(C(C)c5ccccc5)NC(=O)CNC(=O)C(CO)NC(=O)C(C(O)C5CNC(=N)N5C5OC(CO)C(O)C(O)C5O)NC(=O)C(C(O)C5CNC(=N)N5)NC4=O)cc3)C(O)C2O)C(O)C(OC(=O)CCC(C)C)C1O (stereo not drawn) [Example 270b, Cyclo[glycyl-β-methylphenylalanyl-O-[4-O-[6-O-acetyl-3-O-(4-methylpentanoyl)hexopyranosyl]hexopyranosyl]tyrosyl-3-(2-iminoimidazolidin-4-yl)seryl-3-(3-hexopyranosyl-2-iminoimidazolidin-4-yl)serylseryl]]
- MIC Staphylococcus haemolyticus (GC 4546) (Staphylococcus sp.): 4 µg/mL (≈ 2.79 µM)
- MIC Staphylococcus haemolyticus (GC 4546) (Staphylococcus sp.; strain GC 4546): 4 µg/mL (≈ 2.79 µM)

Source: patent publication US6914045B2, “Glycopeptide antibiotics” (Wyeth Holdings Corporation, priority 2001, dated 2005)
